{
  "source": "patent US9422238B2",
  "about": "“ICMT inhibitors” (National University of Singapore, priority 2012, dated 2016)",
  "origin": "cited, not measured here",
  "tested_on": "several malignant cell lines",
  "conditions": "irrespective of Ras status; cited from earlier work",
  "data": [
    {"compound": "COc1cccc(NCCC2(c3ccccc3)CC(C)(C)OC(C)(C)C2)c1", "note": "[3-methoxy-N-[2-(2,2,6,6-tetramethyl-4-phenyltetrahydropyran-4-yl)ethyl]aniline]", "values": [
      {"measurement": "GI50", "result": "≥ 300", "unit": "nM"}
    ]}
  ]
}
